This is an account of results in patent publication US6706734B2, “Arylpiperidinol and arylpiperidine derivatives and pharmaceuticals containing the same” (Daiichi Suntory Pharma Co., Ltd., priority 1996, dated 2004).

pIC50: −log10 of the molar value. Structures can show the parent of a compound that is named as a salt.

Data set [1] relates to Sodium channel. Kind of data set: Inhibitory effect of veratrizine-induced sodium channel activity (synaptosome membrane potential, Rhodamine 6G). The data set is classed as biochemical, Wistar rats. To be noted: compound 0.1 μM, rat brain synaptozomes, veratridine-induced depolarization. As to the method: Inhibitory Effect of Veratrizine-induced Sodium Channel Activity
The membrane potential of the synaptozomes prepared from the brain membrane of Wistar rats (male, 10 to 12 weeks old) was measured by the method of Aiuchi et al. (t. Aiuchi et al: Biochimi. Biophys. Acta. 771, 228 (1984)) using a membrane potential sensitive fluorescent dye Rhodamine 6G to evaluate the effects of suppression of the compound on the veratrizine-inducing depolarization response.

The subject of data set [2] is DBA/2N type mice. Kind of data set: Audiogenic seizure suppressing effect. The class given is in vivo. To be noted: compound 10 mg/kg, i.p., audio stimulus after 20 minutes, suppression of average seizure score; for inhibition in vivo at 10 mg/kg: Mus musculus, ip, 20 min, read-out: Antiseizure effect (suppression rate %). On the procedure: Audiogenic Seizure Suppressing Effect
The audiogenic seizure suppressing effect of the compounds was evaluated by the method of Sarro et al. [G. B. De Sarro et al., Br. J. Pharmacol., 93, 247 (1988)]. That is, the compound dissolved in 10% 2-hydroxypropyl-β-cyclodextrin was administered intraperitoneally to DBA/2N type mice (male, 3 weeks old). After 20 minutes, a supersonic washer was used to apply audio stimulus of at least 90 dB for one minute. The wild running (WR), clonic seizures (clonus), tonic seizures (tonus), and respiratory arrest (RA) were observed.

For data set [3], the system named is T-type Ca^2+ channel. Kind of data set: T-type calcium channel inhibitory effect (whole-cell patch clamp, hippocampal CA1 pyramidal cells). Conditions: read-out: T-type Ca^2+ channel inhibitory effect IC50; suppression of peak current after one minute of application; rat hippocampal CA1 pyramidal cells. (In general: The patch-clamp technique gives a direct electrical read-out from membranes.)
Experimental: T-Type Calcium Channel Inhibitory Effect
The hippocampal CA1 pyramidal cells were isolated from Wistar rats (female, 1 week old) according to the method reported by Takahashi et al. [K. Takahashi et al.; J. Pharmacol. Exp. Ther., 256, 169 (1991)] and the T-type calcium current under conditions of a fixed membrane potential was measured using the whole-cell configration of the patch clamp technique. The effects of the compounds were evaluated from the rate of suppression of the peak current after one minute of application using the concentration clamp method.

A short description of data set [4]: Acute toxicity after intravenous injection. Conditions: mouse, in vivo, ddY mice (male, 6 weeks old), death rate up to 24 hours, read-out: 50% lethal dosage LD50 of acute toxicity. The source says: The compound according to the present invention is low in toxicity.

For orientation: pIC50 means −log10 of the IC50, conventionally taken in molar units. Turning to `O[C@@H](COc1ccccc1)CN1CCC(O)(c2ccc(-c3ccccc3)c(F)c2)CC1` [Compound 43, (R)-4-(3-fluoro-4-phenyl)phenyl-1-(2-hydroxy-3-phenoxy)propyl-4-piperidinol], the “Anti-veratridine effect (inhibiting rate %)” value in data set [1] is 21.2%. In data set [2], the inhibition in vivo at 10 mg/kg was 90%. The pIC50 in data set [3] was 5.85.

A word on the LD50: it is the dose at which mortality reaches 50%. Regarding `OC1(c2ccc(-c3ccccc3)c(F)c2)CCN(C/C=C/c2ccccc2)CC1` [Compound 17, (E)-4-(3-fluoro-4-phenyl)phenyl-1-(3-phenyl-2-propenyl)-4-piperidinol], the LD50 at 24 h in data set [4] stood at 32 mg/kg. In data set [1], the “Anti-veratridine effect (inhibiting rate %)” value worked out at 26.8%. Further, the inhibition in vivo at 10 mg/kg in data set [2] came to 88%. Besides, the pIC50 in data set [3] is 5.72.

What is called melting point is the temperature of the solid-liquid transition. As for `O[C@H](COc1ccccc1)CN1CCC(O)(c2ccc(Oc3ccc(F)cc3)cc2)CC1` (as salt: fumarate), the melting point lay within 48 to 50 °C.

Compound `O=C(CN1CCC(O)(c2ccc(Oc3ccc(F)cc3)cc2)CC1)c1ccccc1` (as salt: fumarate) registered a melting point of 50 to 52 °C.

Take `O=C(CN1CCC(O)(c2ccc(-c3ccccc3)c(F)c2)CC1)c1ccccc1` [Compound 20, 4-(3-fluoro-4-phenyl)phenyl-1-(2-phenyl-2-oxoethyl)-4-piperidinol]: the “Anti-veratridine effect (inhibiting rate %)” value in data set [1] was determined as 20.2%. Besides, the inhibition in vivo at 10 mg/kg in data set [2] amounted to 91.3%. In data set [3], the pIC50 is 5.52.

For the compound `OC(COc1ccccc1)CN1CCC(O)(c2ccc(Cc3ccc(F)cc3)cc2)CC1` (stereo not drawn) [Compound 39, 4-[4-(4-fluorophenyl)methylphenyl]-1-(2-hydroxy-3-phenoxy)propyl-4-piperidinol], the “Anti-veratridine effect (inhibiting rate %)” value in data set [1] (0.1 µM) turned out to be 18.7%. For the same compound, in data set [2], the inhibition in vivo at 10 mg/kg came out at 90%. For the same compound, the pIC50 in data set [3] was 5.89.

Turning to `OC1(c2ccc(Oc3ccccc3)cc2)CCN(C/C=C/c2ccccc2)CC1` [Compound 34, (E)-4-(4-phenoxy)phenyl-1-(3-phenyl-2-propenyl)-4-piperidinol], the “Anti-veratridine effect (inhibiting rate %)” value in data set [1] came out at 29.9%. Moreover, the inhibition in vivo at 10 mg/kg in data set [2] turned out to be 80%. Moreover, the pIC50 in data set [3] is 5.77.

`OC1(c2ccc(Oc3ccc(F)cc3)cc2)CCN(C/C=C/c2ccccc2)CC1` (as salt: fumarate) had a melting point of 148 to 150 °C.

Consider `O[C@H](COc1ccccc1)CN1CCC(O)(c2ccc(-c3ccccc3)c(F)c2)CC1` [Compound 42, (S)-4-(3-fluoro-4-phenyl)phenyl-1-(2-hydroxy-3-phenoxy)propyl-4-piperidinol], for which the “Anti-veratridine effect (inhibiting rate %)” value in data set [1] came to 21%. Further, in data set [2], the inhibition in vivo at 10 mg/kg was 72%. Moreover, the pIC50 in data set [3] is 6.26.

For the compound `O[C@H](COc1ccccc1)CN1CCC(O)(c2ccc(Oc3ccccc3)cc2)CC1` [Compound 45, (S)-4-(4-phenoxy)phenyl-1-(2-hydroxy-3-phenoxy)propyl-4-piperidinol], in data set [1] (0.1 µM), the “Anti-veratridine effect (inhibiting rate %)” value is recorded as 19.8%. For the same compound, in data set [2] (10 mg/kg), the “Antiseizure effect (suppression rate %)” value is 82%.
